Laboratory results taken from BigSolDB 2.1.

What does the source list for `Nc1ccc(Sc2ccc([N+](=O)[O-])cc2)cc1`?
solubility (mole fraction) (in chlorobenzene, 291.25 K): 0.011; solubility (mole fraction) (in chlorobenzene, 296.55 K): 0.0133; solubility (mole fraction) (in chlorobenzene, 301.75 K): 0.0174; solubility (mole fraction) (in chlorobenzene, 306.25 K): 0.019; solubility (mole fraction) (in chlorobenzene, 311.35 K): 0.0225; solubility (mole fraction) (in chlorobenzene, 316.65 K): 0.0275; solubility (mole fraction) (in chlorobenzene, 321.25 K): 0.0314; solubility (mole fraction) (in chloroform, 288.35 K): 0.0218; solubility (mole fraction) (in chloroform, 293.55 K): 0.0264; solubility (mole fraction) (in chloroform, 298.45 K): 0.0307; solubility (mole fraction) (in chloroform, 303.65 K): 0.0361; solubility (mole fraction) (in chloroform, 309.25 K): 0.0433; solubility (mole fraction) (in dichloromethane, 287.45 K): 0.0244; solubility (mole fraction) (in dichloromethane, 290.95 K): 0.0275; solubility (mole fraction) (in dichloromethane, 293.75 K): 0.0299; solubility (mole fraction) (in dichloromethane, 297.15 K): 0.0339; solubility (mole fraction) (in ethyl acetate, 290.45 K): 0.0511; solubility (mole fraction) (in ethyl acetate, 295.65 K): 0.0575; solubility (mole fraction) (in ethyl acetate, 300.45 K): 0.063; solubility (mole fraction) (in ethyl acetate, 305.65 K): 0.0709; solubility (mole fraction) (in ethyl acetate, 309.15 K): 0.0766; solubility (mole fraction) (in ethyl acetate, 313.65 K): 0.0836; solubility (mole fraction) (in ethyl acetate, 318.25 K): 0.0911; solubility (mole fraction) (in n-butanol, 292.55 K): 0.0018; solubility (mole fraction) (in n-butanol, 297.75 K): 0.0024; solubility (mole fraction) (in n-butanol, 302.65 K): 0.0031; solubility (mole fraction) (in n-butanol, 307.65 K): 0.004; solubility (mole fraction) (in n-butanol, 312.35 K): 0.005; solubility (mole fraction) (in n-butanol, 317.55 K): 0.0061; solubility (mole fraction) (in n-butanol, 322.25 K): 0.0081; solubility (mole fraction) (in toluene, 289.75 K): 0.0183; solubility (mole fraction) (in toluene, 294.55 K): 0.0214; solubility (mole fraction) (in toluene, 299.65 K): 0.0241; solubility (mole fraction) (in toluene, 304.75 K): 0.0283; solubility (mole fraction) (in toluene, 309.35 K): 0.0337; solubility (mole fraction) (in toluene, 314.55 K): 0.0385; solubility (mole fraction) (in toluene, 319.35 K): 0.0448; solubility (mole fraction) (in toluene, 324.65 K): 0.0506
